Data from patent US20250000847A1, “TREATMENT OF NEURODEGENERATIVE DISEASES WITH HDAC INHIBITORS” (CASE WESTERN RESERVE UNIVERSITY, priority 2021, published 2025).

How the values were obtained:
[1] = Pharmacokinetics, brain tissue; type: in vivo, mouse
Method: Mice were then perfused with saline to remove blood from the brain. Brain tissue was then collected and snap frozen. Brain tissues were thawed at room temperature and homogenized in PBS. Calibration standards and study samples were extracted with 3× volume of acetonitrile containing 0.1% formic acid+200 ng/ml internal standard solution. Samples were then vortexed each for 1 minute and then transferred to an Eppendorf R5417R and centrifuged at 14000 rpm for 7 minutes. Following extraction of tissue homogenate calibrators and study samples were transferred directly to an autosampler microtiter plate for analysis. Samples were analyzed by LC-MS-MS in the positive ion electrospray ionization mode.

other HDAC = conditions: at up to 15 μM; cited from earlier work
[2] = tested on: retinal ganglion cells (RGCs); assay: Optic nerve crush model of neurodegeneration; type: in vivo, mouse; conditions: 10 mg/kg daily i.p. for 14 days after optic nerve crush
From the text: The optic nerve of adult mice was surgically accessed and crushed. […] 14 days after optic nerve crush surgery, retina were harvested and stained for the RGC marker BRN3A, and the pan neuronal maker BIII-tubulin.

Gbp2 and Psmb8 = assay: Gene expression in cultured human astrocytes (qPCR); type: cell-based
Method: Human induced pluripotent stem cells (iPSCs) were cultured to differentiate into astrocytes as described by Perriot et al. (2018). In short, iPSC colonies were placed in neural induction media for 10 days until neural rosettes could be picked, dissociated, and plated in a glial expansion medium. These cells were allowed to proliferate and become a homogenous population of glial progenitor cells (GPCs) over eight passages on poly-L-ornithine and laminin-coated plates. These GPCs were then passaged onto a Matrigel-coated plate to culture in an astrocyte induction media for two weeks, which was followed by culturing for another four weeks in an astrocyte maturation medium.
Cells were lysed in TRIzol and total RNA was extracted with phenol-chloroform followed by spin columns from the RNEasy Mini Kit (74104, QIAGEN). RNA quality and quantity was determined using a NanoDrop spectrophotometer. The RNA was then reverse transcribed using the iScript cDNA synthesis kit (1708891, Bio-Rad) according to the manufacturer's instructions. […]

[3] = tested on: acetylated histone 4 (AcH4); assay: Acetylated histone 4 in vivo (target engagement); design: species or system mouse; conditions: chronic daily 10 mg/kg, then two days of 5 mg/kg LPS
Method: Mice were perfused with PBS followed by 4% paraformaldehyde, after which brains were extracted and cryopreserved in 30% sucrose then frozen in OCT and sectioned. The stain slides were washed with PBS then incubated overnight with primary antibody against acetyl-Histone H4 (EMD Millipore, 06-866). After primary incubation slides were then washed and labeled with AlexaFluor secondary antibodies (ThermoFisher). Images were captured on a Hamamatsu Nanozoomer S60 Slide scanner with NDP 2.0 software. Image analysis was performed using Perkin Elmer Columbus automated software.

[4] = tested on: GBP2+ reactive astrocytes; assay: Lipopolysaccharide (LPS) model of neuroinflammation, GBP2+ reactive astrocytes in brain; type: in vivo, mouse
Method: After which, brain tissue was collected from the mice and processed for in situ hybridization with probes targeting GFAP as a general astrocyte marker, and the reactive astrocyte-specific marker GBP2.
For in vivo studies in situ hybridization was performed using RNAscope Multiplex Fluorescent V2 Assay (ACD Bio, 323136) according to manufacturer's instructions for fixed frozen samples. Briefly, tissue was prepared by first dehydrating with increasingly higher percentages of ethanol, then dried, blocked with hydrogen peroxide, followed by antigen retrieval for 5 minutes, dried again, and then protein was digested using provided Protease III. RNA targeting probes purchased from ACD Bio were then annealed at 40° C. for 2 hrs, followed by washing and a series of amplification steps before finally tagging the RNA with Opal Dye fluorophores (Perkin Elmer). In situ hybridization Images were captured on a Hamamatsu Nanozoomer S60 Slide scanner with NDP 2.0 software. Image analysis was performed using Perkin Elmer Columbus automated software.

- concentration in brain tissue ([1]; chronic treatment, 10 mg/kg i.p. daily): equal to the IC50
- brain permeance ([1]; mice, 10 mg/kg i.p.): brain permeant
Compound: Nc1cc(F)ccc1NC(=O)/C=C/c1cnn(C/C=C/c2ccccc2)c1 [RGFP966]
- inhibition of other HDAC isozymes (other HDAC): no inhibition
- protection of retinal ganglion cells (RGCs) from neurodegeneration [2]: protects
- expression of genes associated with DRAs, Gbp2 and Psmb8 (Gbp2 and Psmb8): decreased expression
- levels of acetylated histone 4 (AcH4) [3]: increased
- percentage of GFAP+ astrocytes expressing GBP2 ([4]; 10 mg/kg i.p. daily plus 5 mg/kg LPS, frontal cortex and corpus callosum, compared to vehicle plus LPS): lower percentage (about half)
- levels of GBP2+ reactive astrocytes ([4]; chronic treatment prior to LPS challenge, frontal cortex, cerebellum, brainstem, and corpus callosum): decreased levels
